Measurements from patent publication US20260285850A1, “SUBSTITUTED OXAZOLIDINONES AND IMIDAZOLINONES AS HERBICIDES” (FMC CORPORATION, priority 2023, published 2026).

What was measured:
Format in all cases: in vivo
[1] = test system: oat, wild (wild oat, Avena fatua); assay: Test A postemergence application, visual injury rating 0-100; conditions: Postemergence
Source text: (§1) Seeds of plant species selected from barnyardgrass (Echinochloa crus-galli), blackgrass (Alopecurus myosuroides), corn (Zea mays), foxtail, giant (giant foxtail, Setaria faberi), green foxtail (Setaria viridis), goosegrass (Eleusine indica), kochia (Bassia scoparia), oat, wild (wild oat, Avena fatua), palmer (palmer amaranth, palmer pigweed, Amaranthus palmeri), ragweed (common ragweed, Ambrosia artemisiifolia), ryegrass, Italian (italian ryegrass, Lolium multiflorum), soybean (Glycine max) and wheat (Triticum aestivum) were planted into a blend of loam soil and sand and treated preemergence with a directed soil spray using test chemicals formulated in a non-phytotoxic solvent mixture which included a surfactant.
(§2) At the same time, plants selected from these crops and weed species and also galium (catchweed bedstraw, Galium aparine) and horseweed (Erigeron canadensis) were planted in pots containing the same blend of loam soil and sand and treated with postemergence applications of test chemicals formulated in the same manner. Plants ranged in height from 2 to 10 cm and were in the one- to two-leaf stage for the postemergence treatment. Treated plants and untreated controls were maintained in a greenhouse for 10 days, after which time all treated plants were compared to untreated controls and visually evaluated for injury. Plant response ratings, summarized in Table A, are based on a 0 to 100 scale where 0 is no effect and 100 is complete control. A dash (-) response means no test result.

[2] = test system: ryegrass, Italian (italian ryegrass, Lolium multiflorum); assay: as above; conditions: Postemergence
Source text: as §1, §2

[3] = test system: corn (Zea mays); assay: as above; conditions: Postemergence
Source text: as §1, §2

[4] = test system: barnyardgrass (Echinochloa crus-galli); assay: as above; conditions: Postemergence
Source text: as §1, §2

[5] = test system: wheat (Triticum aestivum); assay: as above; conditions: Postemergence
Source text: as §1, §2

[6] = test system: galium (catchweed bedstraw, Galium aparine); assay: as above; conditions: Postemergence
Source text: as §1, §2

[7] = test system: ragweed (common ragweed, Ambrosia artemisiifolia); assay: as above; conditions: Postemergence
Source text: as §1, §2

[8] = test system: palmer (palmer amaranth, palmer pigweed, Amaranthus palmeri); assay: as above; conditions: Postemergence
Source text: as §1, §2

[9] = test system: kochia (Bassia scoparia); assay: as above; conditions: Postemergence
Source text: as §1, §2

[10] = test system: horseweed (Erigeron canadensis); assay: as above; conditions: Postemergence
Source text: as §1, §2

[11] = test system: soybean (Glycine max); assay: as above; conditions: Postemergence
Source text: as §1, §2

[12] = test system: blackgrass (Alopecurus myosuroides); assay: as above; conditions: Postemergence
Source text: as §1, §2

[13] = test system: oat, wild (wild oat, Avena fatua); assay: Test A preemergence soil spray, visual injury rating 0-100; conditions: 10 days; for Oat, Wild plant response rating (0 to 100 scale): 125 g ai/ha
Source text: as §1, §2

[14] = test system: ryegrass, Italian (italian ryegrass, Lolium multiflorum); assay: as above; conditions: 10 days; for Ryegrass, Italian plant response rating (0 to 100 scale): 125 g ai/ha
Source text: as §1, §2

[15] = test system: corn (Zea mays); assay: as above; conditions: 10 days; for Corn plant response rating (0 to 100 scale): 125 g ai/ha
Source text: as §1, §2

[16] = test system: barnyardgrass (Echinochloa crus-galli); assay: as above; conditions: 10 days; for Barnyardgrass plant response rating (0 to 100 scale): 125 g ai/ha
Source text: as §1, §2

[17] = test system: wheat (Triticum aestivum); assay: as above; conditions: 10 days; for Wheat plant response rating (0 to 100 scale): 125 g ai/ha
Source text: as §1, §2

[18] = test system: ragweed (common ragweed, Ambrosia artemisiifolia); assay: as above; conditions: 10 days; for Ragweed plant response rating (0 to 100 scale): 125 g ai/ha
Source text: as §1, §2

[19] = test system: palmer (palmer amaranth, palmer pigweed, Amaranthus palmeri); assay: as above; conditions: 10 days; for Amaranth, Palmer plant response rating (0 to 100 scale): 125 g ai/ha
Source text: as §1, §2

[20] = test system: kochia (Bassia scoparia); assay: as above; conditions: 10 days; for Kochia plant response rating (0 to 100 scale): 125 g ai/ha
Source text: as §1, §2

[21] = test system: soybean (Glycine max); assay: as above; conditions: 10 days; for Soybean plant response rating (0 to 100 scale): 125 g ai/ha
Source text: as §1, §2

[22] = test system: blackgrass (Alopecurus myosuroides); assay: as above; conditions: 10 days; for Blackgrass plant response rating (0 to 100 scale): 125 g ai/ha
Source text: as §1, §2

[23] = 31 g ai/ha, greenhouse 10 days, 0 no effect, 100 complete control
[24] = 125 g ai/ha, 10 days, 0 is no effect, 100 is complete control
[25] = 0 = no effect, 100 = complete control
[26] = 31 g ai/ha, 0 = no effect, 100 = complete control

CCS(=O)(=O)NC(=O)C1C=CC(NC(=O)C2(C)CN(c3cc(F)cc(F)c3)C(=O)O2)C1 (stereo not shown) [Compound 81]
40: Oat, Wild plant response rating ([13]; 31 g ai/ha, 0 to 100 scale) | Wheat plant response rating ([17]; 31 g ai/ha, 0 to 100 scale)
30: Horseweed plant response rating (0 to 100 scale) [10, 23] | Soybean plant response rating (0 to 100 scale) [11, 23] | Blackgrass plant response rating ([22]; 31 g ai/ha, 0 to 100 scale)
100: Corn plant response rating (0 to 100 scale) [3, 24]
80: Oat, Wild plant response rating (0 to 100 scale) [1, 23] | Galium plant response rating (0 to 100 scale) [6, 23] | Galium plant response rating (0 to 100 scale) [6, 24] | Kochia plant response rating (0 to 100 scale) [9, 23] | Ryegrass, Italian plant response rating (0 to 100 scale) [14, 25] | Corn plant response rating (0 to 100 scale) [15, 25]
10: Ragweed plant response rating (0 to 100 scale) [18, 25] | Soybean plant response rating ([21]; 31 g ai/ha, 0 to 100 scale)
50: Ryegrass, Italian plant response rating (0 to 100 scale) [2, 23] | Ragweed plant response rating (0 to 100 scale) [7, 24] | Soybean plant response rating (0 to 100 scale) [11, 24] | Blackgrass plant response rating (0 to 100 scale) [12, 24] | Amaranth, Palmer (Pigweed, Palmer) plant response rating ([19]; 31 g ai/ha, 0 to 100 scale)
90: Oat, Wild plant response rating (0 to 100 scale) [1, 24] | Barnyardgrass plant response rating (0 to 100 scale) [4, 23] | Barnyardgrass plant response rating (0 to 100 scale) [4, 24] | Wheat plant response rating (0 to 100 scale) [5, 23] | Wheat plant response rating (0 to 100 scale) [5, 24] | Kochia plant response rating (0 to 100 scale) [9, 24] | Barnyardgrass plant response rating ([16]; 31 g ai/ha, 0 to 100 scale) | Barnyardgrass plant response rating (0 to 100 scale) [16, 25] | Wheat plant response rating (0 to 100 scale) [17, 25] | Amaranth, Palmer plant response rating (0 to 100 scale) [19, 25] | Kochia plant response rating (0 to 100 scale) [20, 25]
20: Ragweed plant response rating (0 to 100 scale) [7, 23] | Ragweed plant response rating ([18]; 31 g ai/ha, 0 to 100 scale)
60: Corn plant response rating (0 to 100 scale) [3, 23] | Ryegrass, Italian plant response rating ([14]; 31 g ai/ha, 0 to 100 scale)
70: Ryegrass, Italian plant response rating (0 to 100 scale) [2, 24] | Amaranth, Palmer / Pigweed, Palmer plant response rating (0 to 100 scale) [8, 23] | Amaranth, Palmer / Pigweed, Palmer plant response rating (0 to 100 scale) [8, 24] | Horseweed plant response rating (0 to 100 scale) [10, 24] | Oat, Wild plant response rating (0 to 100 scale) [13, 25] | Kochia plant response rating ([20]; 31 g ai/ha, 0 to 100 scale) | Soybean plant response rating (0 to 100 scale) [21, 25] | Blackgrass plant response rating (0 to 100 scale) [22, 25]
0: Blackgrass plant response rating (0 to 100 scale) [12, 23] | Corn plant response rating ([15]; 31 g ai/ha, 0 to 100 scale)

CC1(C(=O)NC2C=CC(C(=O)NS(=O)(=O)C(C)(C)C)C2)CN(c2cc(F)cc(F)c2)C(=O)O1 (stereo not shown) [Compound 80]
80: Ryegrass, Italian plant response rating (0 to 100 scale) [2, 24] | Barnyardgrass plant response rating (0 to 100 scale) [4, 23] | Galium plant response rating (0 to 100 scale) [6, 23] | Galium plant response rating (0 to 100 scale) [6, 24] | Kochia plant response rating (0 to 100 scale) [9, 24] | Soybean plant response rating (0 to 100 scale) [11, 24]
70: Ryegrass, Italian plant response rating (0 to 100 scale) [2, 23] | Amaranth, Palmer / Pigweed, Palmer plant response rating (0 to 100 scale) [8, 24] | Kochia plant response rating (0 to 100 scale) [9, 23] | Horseweed plant response rating (0 to 100 scale) [10, 24] | Soybean plant response rating (0 to 100 scale) [11, 23] | Blackgrass plant response rating (0 to 100 scale) [12, 24] | Kochia plant response rating (0 to 100 scale) [20, 25]
10: Horseweed plant response rating (0 to 100 scale) [10, 23] | Ragweed plant response rating (0-100) [18, 26] | Soybean plant response rating (0 to 100 scale) [21, 25]
50: Amaranth, Palmer / Pigweed, Palmer plant response rating (0 to 100 scale) [8, 23] | Wheat plant response rating (0 to 100 scale) [17, 25] | Amaranth, Palmer plant response rating (0 to 100 scale) [19, 25]
40: Ragweed plant response rating (0 to 100 scale) [7, 24] | Barnyardgrass plant response rating (0 to 100 scale) [16, 25]
60: Wheat plant response rating (0 to 100 scale) [5, 23] | Ryegrass, Italian plant response rating (0 to 100 scale) [14, 25]
30: Corn plant response rating (0 to 100 scale) [3, 23] | Blackgrass plant response rating (0 to 100 scale) [12, 23] | Oat, Wild plant response rating (0 to 100 scale) [13, 25] | Blackgrass plant response rating (0 to 100 scale) [22, 25]
100: Corn plant response rating (0 to 100 scale) [3, 24]
90: Oat, Wild plant response rating (0 to 100 scale) [1, 23] | Oat, Wild plant response rating (0 to 100 scale) [1, 24] | Barnyardgrass plant response rating (0 to 100 scale) [4, 24] | Wheat plant response rating (0 to 100 scale) [5, 24]
0: Ragweed plant response rating (0 to 100 scale) [7, 23] | Oat, Wild plant response rating (0-100) [13, 26] | Ryegrass, Italian plant response rating (0-100) [14, 26] | Corn plant response rating (0-100) [15, 26] | Corn plant response rating (0 to 100 scale) [15, 25] | Barnyardgrass plant response rating (0-100) [16, 26] | Wheat plant response rating (0-100) [17, 26] | Ragweed plant response rating (0 to 100 scale) [18, 25] | Amaranth, Palmer plant response rating (0-100) [19, 26] | Kochia plant response rating (0-100) [20, 26] | Soybean plant response rating (0-100) [21, 26] | Blackgrass plant response rating (0-100) [22, 26]
